Results published in paper PMC4113265 (Journal of Natural Products, 2014).

How the values were obtained:
MIA PaCa-2 cells = experiment: MTT antiproliferation/cytotoxicity assay; format: cell-based, human; settings: MIA PaCa-2, MTT, concentration-response curves (Figure 2A)
[1] = freshly prepared rat serum; cited from earlier work
[2] = cited from earlier work

| Substance | potency relative to 1 in MIA PaCa-2 cells (MIA PaCa-2 cells) | half-life (t1/2) in serum [1] [min] | half-life (t1/2) in whole blood [2] [min] |
| --- | --- | --- | --- |
| apicidin | significantly less active than 1 |  |  |
| chlamydocin |  | 8.7 | 0.68 to 3.6 |
| trapoxin A | comparable potency to 1 |  |  |
